Here are results for 28 molecules from patent publication US20240315299A1, “AMIDE COMPOUNDS AND THEIR USE AS FLAVOR MODIFIERS” (FIRMENICH INCORPORATED, priority 2021, published 2024).

SMILES strings stand for the structures. A value given as a limit tells only on which side of the number the result lay.

In the test the target is T1, T1R umami taste receptor (Homo sapiens, UniProt Q7RTX0+Q7RTX1).
T1 sequence (Q7RTX1 21-841): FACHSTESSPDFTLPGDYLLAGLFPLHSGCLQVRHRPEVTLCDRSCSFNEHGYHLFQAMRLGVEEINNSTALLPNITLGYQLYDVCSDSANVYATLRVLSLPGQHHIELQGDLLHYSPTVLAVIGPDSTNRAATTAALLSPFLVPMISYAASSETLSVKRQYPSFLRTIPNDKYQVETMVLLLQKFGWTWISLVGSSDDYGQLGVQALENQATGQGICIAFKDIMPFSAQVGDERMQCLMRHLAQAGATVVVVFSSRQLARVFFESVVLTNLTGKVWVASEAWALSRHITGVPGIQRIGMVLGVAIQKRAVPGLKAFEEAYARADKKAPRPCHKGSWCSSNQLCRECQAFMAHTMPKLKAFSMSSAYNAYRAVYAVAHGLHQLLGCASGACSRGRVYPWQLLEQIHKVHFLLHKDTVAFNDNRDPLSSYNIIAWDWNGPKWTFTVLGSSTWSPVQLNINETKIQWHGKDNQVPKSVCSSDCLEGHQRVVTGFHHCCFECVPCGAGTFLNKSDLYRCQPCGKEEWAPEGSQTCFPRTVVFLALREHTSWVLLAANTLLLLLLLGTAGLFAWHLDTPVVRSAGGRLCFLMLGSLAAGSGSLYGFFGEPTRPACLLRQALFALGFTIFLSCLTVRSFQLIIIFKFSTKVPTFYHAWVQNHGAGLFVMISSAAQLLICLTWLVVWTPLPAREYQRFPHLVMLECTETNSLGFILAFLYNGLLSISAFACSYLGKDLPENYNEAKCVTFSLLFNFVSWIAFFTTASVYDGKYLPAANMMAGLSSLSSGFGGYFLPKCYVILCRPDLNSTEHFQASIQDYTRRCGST
T1 sequence (Q7RTX0 21-852): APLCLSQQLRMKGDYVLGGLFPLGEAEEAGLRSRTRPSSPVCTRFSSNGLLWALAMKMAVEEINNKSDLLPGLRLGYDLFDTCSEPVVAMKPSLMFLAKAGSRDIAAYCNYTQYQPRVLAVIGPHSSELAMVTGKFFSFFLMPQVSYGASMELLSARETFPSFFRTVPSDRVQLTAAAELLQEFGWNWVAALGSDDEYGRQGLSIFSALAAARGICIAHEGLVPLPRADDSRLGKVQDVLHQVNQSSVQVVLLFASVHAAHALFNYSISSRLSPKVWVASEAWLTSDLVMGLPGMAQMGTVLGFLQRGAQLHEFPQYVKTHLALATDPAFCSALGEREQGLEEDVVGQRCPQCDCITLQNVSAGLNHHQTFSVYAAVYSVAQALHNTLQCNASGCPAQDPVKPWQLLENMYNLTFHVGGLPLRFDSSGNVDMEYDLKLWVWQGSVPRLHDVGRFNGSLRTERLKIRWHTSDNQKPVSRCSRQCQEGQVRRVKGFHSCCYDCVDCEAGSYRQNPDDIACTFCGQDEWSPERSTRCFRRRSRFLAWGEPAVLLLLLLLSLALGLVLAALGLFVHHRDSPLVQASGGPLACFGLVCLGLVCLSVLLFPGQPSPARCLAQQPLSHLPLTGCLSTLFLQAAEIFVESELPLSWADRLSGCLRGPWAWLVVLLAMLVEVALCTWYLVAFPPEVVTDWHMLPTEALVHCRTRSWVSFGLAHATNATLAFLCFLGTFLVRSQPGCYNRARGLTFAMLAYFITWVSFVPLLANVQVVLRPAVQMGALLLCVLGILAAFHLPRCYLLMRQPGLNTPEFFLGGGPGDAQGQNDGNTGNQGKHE
Nature of the test: in vitro cell-based assay, enhancement of MSG binding at umami taste receptor. The following applies: cells that express the T1R umami taste receptor, from dose-binding curves. The protocol:
Each of Compounds 101-135, as well as Compounds 168 and 169, (as set forth in Table 1) was synthesized according to one of the general procedures set forth above in Examples 1 to 4. Thereafter, the compounds were tested in an in vitro cell-based assay having cells that express the T1R umami taste receptor. Dose-binding curves were recorded and the EC50 was determined for enhancement of MSG binding. Table 2 sets forth the calculated EC50 values for certain tested compounds.

A word on the EC50: it is the concentration giving half of the maximal effect. `C/C=C(\C)C(=O)NCCCCNC(=O)c1ccc2c(c1)OCO2` [Compound 106]: the EC50 was determined as 6 µM.
Regarding `CC/C=C(\C)C(=O)NCCCCNC(=O)/C=C/c1ccccc1` [Compound 118, (E)-N-(4-cinnamamidobuty1)-2-methylpent-2-enamide], the EC50 is more than 50 µM.
With `O=C(/C=C/c1ccccc1)NCCCCNC(=O)c1ccccc1` [Compound 123, N-(4-cinnamamidobutyl)benzamide] the figure was more than 50 µM.
`CC(=O)NCCCCNC(=O)/C=C/c1ccccc1` [Compound 107]: the EC50 was more than 50 µM.
For `C/C=C(\C)C(=O)NCCCCNC(=O)/C=C/c1ccc(OC)c(O)c1` [Compound 134, (E)-N-(4-((E)-3-(3-hydroxy-4-methoxyphenyl)acrylamido)butyl)-2-methylbut-2-enamide], the half-maximal effective concentration (EC50) was more than 50 µM.
Turning to `C/C=C(\C)C(=O)NCCCCNC(=O)c1ccc(C)cc1` [Compound 102], the EC50 was 8 µM.
As for `C/C=C(\C)C(=O)NCCCCNC(=O)/C=C/c1cccc(OC)c1` [Compound 128, (E)-N-(4-((E)-3-(3-methoxyphenyl)acrylamido)butyl)-2-methylbut-2-enamide], the concentration for a half-maximal effect (EC50) was determined as 2 µM.
For the molecule `C/C=C(/C)C(=O)NCCCCNC(=O)/C=C/c1ccccc1` [Compound 114], the EC50 was more than 50 µM.
In the case of `C/C(=C\CO)C(=O)NCCCCNC(=O)/C=C/c1ccccc1` [Compound 119, (E)-N-(4-cinnamamidobutyl)-4-hydroxy-2-methylbut-2-enamide], the EC50 was less than 12 µM.
As for `C/C=C(\C)C(=O)NCCCCNC(=O)/C=C/c1ccc(OCC)cc1` [Compound 130, (E)-N-(4-((E)-3-(4-ethoxyphenyl)acrylamido)butyl)-2-methylbut-2-enamide], the concentration for a half-maximal effect (EC50) is less than 1 µM.
With `C/C=C(\C)C(=O)NCCCCNC(=O)c1ccc(C)c(C)c1` [Compound 103], the half-maximal effective concentration (EC50) was less than 1 µM.
On to `CCC(C)C(=O)NCCCCNC(=O)/C=C/c1ccccc1` (stereo not shown) [Compound 109], for which the EC50 was more than 50 µM.
Consider `C/C=C(\C)C(=O)NCCCCNC(=O)/C=C/c1ccc(OC)cc1OC` [Compound 131, (E)-N-(4-((E)-3-(2,4-dimethoxyphenyl)acrylamido)butyl)-2-methylbut-2-enamide], for which the EC50 was less than 1 µM.
Turning to `CC(C)=C(C)C(=O)NCCCCNC(=O)/C=C/c1ccccc1` [Compound 117, N-(4-cinnamamidobutyl)-2,3-dimethylbut-2-enamide], the EC50 is more than 50 µM.
Consider `O=C(/C=C/c1ccccc1)NCCCCNC(=O)/C=C/c1ccccc1` [Compound 122, (2E,2′E)-N,N′-(butane-1,4-diyl)bis(3-phenylacrylamide)], for which the 50% effective concentration (EC50) was more than 50 µM.
Consider `CC(C)=CC(=O)NCCCCNC(=O)/C=C/c1ccccc1` [Compound 116, N-(4-cinnamamidobutyl)-3-methylbut-2-enamide], for which the EC50 was more than 50 µM.
With `C/C=C(\C)C(=O)NCCCCNC(=O)/C=C/c1ccc(OC)cc1` [Compound 129, (E)-N-(4-((E)-3-(4-methoxyphenyl)acrylamido)butyl)-2-methylbut-2-enamide], the EC50 is less than 1 µM.
For the molecule `COc1ccc(C(=O)OC/C=C(\C)C(=O)NCCCCNC(=O)/C=C/c2ccccc2)cc1` [Compound 169, (E)-4-((4-cinnamamidobutyl)amino)-3-methyl-4-oxobut-2-en-1-yl 4-methoxy benzoate], the EC50 worked out at 23 µM.
Regarding `CC(C)C(=O)NCCCCNC(=O)/C=C/c1ccccc1` [Compound 108], the EC50 is more than 50 µM.
Consider `C/C=C(\C)C(=O)NCCCCNC(=O)/C=C/c1ccc(OC)c(OC)c1` [Compound 132, (E)-N-(4-((E)-3-(3,4-dimethoxyphenyl)acrylamido)butyl)-2-methylbut-2-enamide], for which the EC50 is 4 µM.
The figure for `C/C=C(\C)C(=O)NCCCCNC(=O)/C=C/c1ccccc1OC` [Compound 127, (E)-N-(4-((E)-3-(2-methoxyphenyl)acrylamido)butyl)-2-methylbut-2-enamide] is 2 µM; for `CC(=O)OC/C=C(\C)C(=O)NCCCCNC(=O)/C=C/c1ccccc1` [Compound 168, (E)-4-((4-cinnamamidobutyl)amino)-3-methyl-4-oxobut-2-en-1-yl acetate] it is less than 1 µM.
Consider `C/C=C(\C)C(=O)NCCCCNC(=O)/C=C/c1ccc(O)c(OC)c1` [Compound 135, (E)-N-(4-((E)-3-(4-hydroxy-3-methoxyphenyl)acrylamido)butyl)-2-methylbut-2-enamide], for which the EC50 was more than 50 µM.
For the molecule `C/C=C(\C)C(=O)NCCCCNC(=O)/C=C/c1ccc2c(c1)OCO2` [Compound 133, (E)-N-(4-((E)-3-(benzo[d][1,3]dioxol-5-yl)acrylamido)butyl)-2-methylbut-2-enamide], the EC50 was 20 µM.
With `O=C(/C=C/c1ccccc1)NCCCCNC(=O)c1ccc(O)cc1` [Compound 126, N-(4-cinnamamidobutyl)-4-hydroxybenzamide], the EC50 is more than 50 µM.
On to `C/C=C(\C)C(=O)NCCCCNC(=O)c1ccc(OC)cc1` [Compound 105], for which the EC50 was 12 µM.
For `C/C=C(\C)C(=O)NCCCCNC(=O)c1cc(C)c(C)c(C)c1` [Compound 104], the concentration for a half-maximal effect (EC50) amounted to 2 µM.
As to `C/C=C(\C)C(=O)NCCCCNC(=O)/C=C/c1ccccc1` [Compound 115, (E)-N-(4-cinnamamidobuty1)-2-methylbut-2-enamide], the EC50 is less than 8 µM.
